# Experimental data from ChEMBL document CHEMBL4421737, “D-3-phosphoglycerate dehydrogenase allosteric inhibitor and use thereof” (2018).
# Active and inactive are the calls of the source. No cut-off for these calls is given here.
# Columns and labels:
# MDA-MB-468 [1] = assay: Cytotoxicity against human MDA-MB-468 cells assessed as reduction in cell viability incubated for 72 hrs by MTT assay; assay type: functional, cell-based; settings: MDA-MB-468, 72 h
# DLD-1 = assay: Cytotoxicity against human DLD1 cells assessed as reduction in cell viability incubated for 72 hrs by MTT assay; assay type: functional, cell-based; settings: DLD-1, 72 h
# HCC70 = assay: Cytotoxicity against human HCC70 cells assessed as reduction in cell viability incubated for 72 hrs by MTT assay; assay type: functional, cell-based; settings: HCC70, 72 h
# MDA-MB-468 [2] = assay: Antitumor activity against human MDA-MB-468 cells xenografted in NOD.CB17-Prkdc scid/J mouse assessed as inhibition of tumor growth at 20 mg/kg/day measured every two days up to 70 days post treatment initiation; assay type: functional, organism-based
# MDA-MB-468 [3] = assay: Induction of cell cycle arrest in human MDA-MB-468 cells assessed as accumulation at G0/G1 phase at 2.5 to 40 uM incubated for 24 hrs by propidium iodide staining based flow cytometry; assay type: functional
# MDA-MB-231 = assay: Cytotoxicity against human MDA-MB-231 cells assessed as reduction in cell viability incubated for 72 hrs by MTT assay; assay type: functional, cell-based; settings: MDA-MB-231, 72 h
# ZR-75-1 = assay: Cytotoxicity against human ZR-75-1 cells assessed as reduction in cell viability incubated for 72 hrs by MTT assay; assay type: functional, cell-based; settings: ZR-75-1, 72 h
# MCF-10A = assay: Cytotoxicity against human MCF10A cells assessed as reduction in cell viability incubated for 72 hrs by MTT assay; assay type: cell-based
# MDA-MB-468 [4] = assay: Antitumor activity against human MDA-MB-468 cells xenografted in NOD.CB17-Prkdc scid/J mouse assessed as inhibition of tumor growth at 20 mg/kg/day co-treated with 2.5mg/kg/4day doxorubicin measured every two days up to 11 days post treatment initiation relative to doxorubicin alone; assay type: functional
# MDA-MB-468 [5] = assay: Antitumor activity against human MDA-MB-468 cells xenografted in NOD.CB17-Prkdc scid/J mouse assessed as inhibition of tumor growth at 20 mg/kg/day co-treated with 2.5mg/kg/4day doxorubicin measured every two days up to 11 days post treatment initiation relative to compound alone; assay type: functional
# MDA-MB-468 [6] = assay: Induction of cell cycle arrest in human MDA-MB-468 cells assessed as accumulation at G0/G1 phase at 10 to 160 uM incubated for 24 hrs by propidium iodide staining based flow cytometry; assay type: functional
# MCF7 = assay: Cytotoxicity against human MCF7 cells assessed as reduction in cell viability incubated for 72 hrs by MTT assay; assay type: functional, cell-based; settings: MCF7, 72 h
SMILES,EC50 (MDA-MB-468 [1]),EC50 (DLD-1),EC50 (HCC70),TGI (MDA-MB-468 [2]),Activity (MDA-MB-468 [3]),EC50 (MDA-MB-231),EC50 (ZR-75-1),EC50 (MCF-10A),TGI (MDA-MB-468 [4]),TGI (MDA-MB-468 [5]),Activity (MDA-MB-468 [6]),EC50 (MCF7)
O=C(N/N=C/c1cc([N+](=O)[O-])ccc1O)c1ccc(O)cc1O,7.7 µM,18.3 µM,10.8 µM,Active,Active,27.7 µM,83.4 µM,45.8 µM,,,,
CCNC(=S)N/N=C/c1ccc(-c2ccc(C(=O)O)c(Cl)c2)o1,6.9 µM,167 µM,10 µM,Active,,> 200 µM,125 µM,64.7 µM,41%,41%,Active,> 200 µM
